The source of these data is publication PMC8023712, “Carboxylesterase Activities and Protein Expression in Rabbit and Pig Ocular Tissues” (Molecular Pharmaceutics, 2021).

Some results are limits rather than exact numbers.

For data set [1], the system named is CES1 (rabbit ocular tissue homogenates). The data set can be described thus: DME hydrolysis in rabbit ocular tissue homogenates. The note with it: for DME hydrolysis rate: 5 μM DME. The procedure:
(§1) The hydrolysis of DME was monitored with slight modifications using the published bioluminescence-based assay[13],[21] where recombinant firefly luciferase enzyme was used to detect the D-luciferin that formed in the reaction mixture. The DME hydrolysis reaction was done in white-coated 96-well plates (Thermo Scientific Sterilin Microtiter Plates). Tissue lysates (5 μg of protein) were preincubated in 0.1 M PBS, pH 6.5. The reaction was initiated by adding DME to a final concentration of 5 μM in a final volume of 200 μL. The hydrolysis of DME was allowed to proceed for 20 min at 37 °C. The formed D-luciferin was quantitated by an injection of 73 μL of the luciferase detection reagent [3 μg of rLuciferase, 50 nmol of ATP, and 50 nmol of MgCl2 in PBS], and the luminescence was measured immediately with a Victor^2 Microplate Reader (560 nm, 1 s). Serial 2-fold dilutions of D-luciferin in 0.1 M PBS, pH 6.5 were used to generate the standard curve (0.156–10 μM).
(§2) Inhibitors were tested at a final concentration range of 0.4–400 μM except for PMSF (0.3–2.5 mM).

The subject of data set [2] is CES1 (pig ocular tissue homogenates). The data set can be described thus: DME hydrolysis in pig ocular tissue homogenates. Conditions: for DME hydrolysis rate: 5 μM DME. As for the experimental part:
as §1, §2

Data set [3] has as its target T1, CES1 (human liver homogenate) (Homo sapiens, UniProt P23141).
T1 construct: Homogenates for rat whole eye (covered by the license # ESAVI/8621/04.10.07/2017) and human liver; from tissue; host or cells: human liver homogenate (donated, Oulu University Hospital)
As to the kind of experiment: DME hydrolysis in human liver homogenate (positive control). The note with it: 5 μM DME. The format is in vitro ADME. From the text:
(§3) CES enzymes are localized in the endoplasmic reticulum,[2],[45] but some activity resides in the cytoplasm.[46] Therefore, to prevent possible losses during sample preparation, we used whole tissue homogenates to characterize CES expression and activity in ocular tissues. The homogenization of pooled ocular tissues in 1 × DPBS buffer (3:1 v/w) was done with a Dounce homogenizer (Thomas Scientific; Swedesboro, NJ) with 5–10 strokes, depending on the ocular tissue. Aqueous humor and vitreous were homogenized without adding buffer. Tissue homogenization buffer was supplemented with protease inhibitor cocktail without phenylmethylsulfonyl fluoride (PMSF), a known inhibitor of esterases.[47],[48] After homogenization, all samples were sonicated at 750 W (Vibra-Cell VCX50 and a four-element microtip probe; Sonics & Materials Inc., Newton, CT) using four pulses of 45 s with a cooling interval of 15 s. […]
(§4) The hydrolysis of DME was monitored with slight modifications using the published bioluminescence-based assay[13],[21] where recombinant firefly luciferase enzyme was used to detect the D-luciferin that formed in the reaction mixture. […] The formed D-luciferin was quantitated by an injection of 73 μL of the luciferase detection reagent [3 μg of rLuciferase, 50 nmol of ATP, and 50 nmol of MgCl2 in PBS], and the luminescence was measured immediately with a Victor^2 Microplate Reader (560 nm, 1 s).

Data set [4] has as its system CES1 (rat whole eye homogenate). As to the kind of experiment: DME hydrolysis in rat whole eye homogenate (positive control). The data set is classed as in vitro ADME. Conditions: 5 μM DME.
Text: as §3, §4

For a further data set, the system named is rhCES1. Conditions: read-out: Km literature data, DME; cited from earlier work.
Data set [5] relates to multiple esterases (rabbit ocular tissue homogenates). As to the kind of experiment: NPA hydrolysis in rabbit ocular tissue homogenates. The data set is classed as in vitro ADME. Conditions: for NPA hydrolysis rate: 400 μM NPA. As for the experimental part: (§5) NPA hydrolysis was performed with a slight modification to our previous protocol[22] in clear flat-bottom 96-well Thermo Scientific Sterilin Microtiter plates at 37 °C. Diluted ocular samples (8 μg of protein in 80 μL of PBS) were pipetted into the reaction wells, and the background absorbance was measured at 405 nm for 10 min of preincubation. […] Changes in absorbance at 405 nm were recorded with a Victor^2 Microplate Reader (PerkinElmer Wallac 1420, St.

Data set [6] has as its system multiple esterases (pig ocular tissue homogenates). The data set can be described thus: NPA hydrolysis in pig ocular tissue homogenates. The format is in vitro ADME. The note with it: for NPA hydrolysis rate: 400 μM NPA. The procedure:
as §5

The test system of another data set is multiple esterases (HLM). Conditions: NPA, read-out: Km literature data; cited from earlier work.
Data set [7] deals with multiple esterases (rabbit cornea). Conditions: NPA, read-out: Km literature data; cited from earlier work.
The subject of a further data set is pig liver CES1. The note with it: NPA, read-out: Km literature data; cited from earlier work.

T1 sequence (P23141 18-567): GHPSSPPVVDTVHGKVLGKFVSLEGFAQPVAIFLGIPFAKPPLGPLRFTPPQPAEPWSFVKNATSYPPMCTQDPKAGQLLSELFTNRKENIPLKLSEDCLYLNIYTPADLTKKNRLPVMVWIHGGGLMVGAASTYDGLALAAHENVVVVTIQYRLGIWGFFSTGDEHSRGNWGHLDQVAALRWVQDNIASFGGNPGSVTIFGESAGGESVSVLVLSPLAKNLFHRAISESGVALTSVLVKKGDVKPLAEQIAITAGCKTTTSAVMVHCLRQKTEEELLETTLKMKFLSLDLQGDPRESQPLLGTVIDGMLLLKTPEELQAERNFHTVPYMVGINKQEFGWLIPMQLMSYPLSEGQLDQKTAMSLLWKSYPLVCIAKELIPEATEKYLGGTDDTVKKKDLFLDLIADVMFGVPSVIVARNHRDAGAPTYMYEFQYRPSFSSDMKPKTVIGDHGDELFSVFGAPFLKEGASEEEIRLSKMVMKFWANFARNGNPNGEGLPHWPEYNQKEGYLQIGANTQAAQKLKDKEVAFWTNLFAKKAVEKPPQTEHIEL

The Km is the substrate concentration at which the rate is half of its maximum. On to `COC(=O)[C@H]1CSC(c2nc3ccc(O)cc3s2)=N1` [DME, D-luciferin methyl ester], for which the DME hydrolysis rate in data set [1] (rabbit RPE and retina) was 0.1 to 0.5 nmol/min/mg; in data set [1] (rabbit aqueous humor and vitreous), 0.5 to 1.0 nmol/min/mg; in data set [1] (rabbit conjunctiva, cornea and choroid), no less than 1 nmol/min/mg; in data set [2] (pig RPE, aqueous humor and vitreous) it was 0.1 to 0.2 nmol/min/mg; in data set [2] (pig conjunctiva, cornea and choroid) it was no less than 1 nmol/min/mg; in data set [2] (pig retina), 0.5 to 1 nmol/min/mg. The DME hydrolysis rate in data set [3] was determined as 3.6 ± 0.7 nmol/min/mg; in data set [4], 2.6 ± 0.2 nmol/min/mg. Besides, the Km in data set [1] (read-out: Km (this study), DME hydrolysis in rabbit cornea) was 2.5 ± 0.8 µM; in data set [2] (read-out: Km (this study), DME hydrolysis in pig cornea) it was 2.7 ± 1.3 µM; in the data set on rhCES1, roughly 5 µM.
Consider `CC(=O)Oc1ccc([N+](=O)[O-])cc1` [NPA, 4-Nitrophenyl acetate], for which the Michaelis-Menten constant (Km) is 263 ± 15 µM in data set [5] (NPA hydrolysis in rabbit cornea, read-out: Km (this study)); 125 ± 13 µM in [6] (NPA hydrolysis in pig cornea, read-out: Km (this study)); 198 ± 17 µM in the data set on multiple esterases (HLM); 68 ± 15 µM in data set [7]; 520 ± 60 µM in the data set with pig liver CES1. The NPA hydrolysis rate in data set [5] (rabbit RPE) is recorded as 17.5 ± 2.7 nmol/min/mg; in data set [5] (rabbit choroid) it was 81.6 ± 6.8 nmol/min/mg; in [5] (rabbit, most ocular tissue homogenates, 37 °C), 30–45 nmol/min/mg protein; in [6] (pig RPE) it was 8.4 ± 1.0 nmol/min/mg; in [6] (pig, all ocular tissues except RPE) it was “around 20 nmol/min/mg”.
